Experimental data from publication PMC9414551 (Pharmaceuticals, 2022).
Structures can show the parent of a compound that is named as a salt.

Tests used:
[1] = molecular target: T1, NR1-2B NMDAR (Homo sapiens, UniProt Q05586+Q13224); assay: FLIPR Ca2+ assay, blocker concentration-response curve; assay type: cell-based; set-up: host or cells: CHO (CHO-hNR1-h2B), constitutive expression; conditions: for Min. (%), minimal % Ca2+ influx in the presence of 100 μM blocker: 10 µM L-glutamate, no Mg2+; for Slope: logistic fit of blocker CRC
Excerpt: (§1) CHO cell lines stably over-expressing heterodimeric NMDARs composed of human NR1 and 2 subunits were generated by Aptuit, an Evotec company (Verona, Italy). Cell line details are available at ExPASy Cellosaurus database. Research Resource Identifiers (RRIDs) are CVCL_B3TY, CVCL_B3TZ, CVCL_B3U0, and CVCL_B3U1 for CHO-hNR1-h2A, CHO-hNR1-h2B, CHO-hN1-h2C, and CHO-hN1-h2D, respectively. Protein accession numbers were NP_015566, NP_000824, NP_000825, NP_000826, and NP_000827 for NR1, 2A, 2B, 2C, and 2D, respectively. […] The four different heterodimeric NMDARs studied were NR1-2A, NR1-2B, NR1-2C, and NR1-2D. Cell lines were cultured for a maximum of 75 passages.
(§2) FLIPR assay allowed for indirect measurement of intracellular Ca^2+ concentration by means of a Ca^2+-sensitive fluorescent dye (Fluo-4) using the FLIPR instrument (Molecular Devices, San Jose, CA, USA). For these assays, 40 mM stock solutions of the test items were prepared in 100% dimethyl sulfoxide (DMSO), while glutamate and glycine 4 mM stock solutions were prepared in water. 384-well compound plates containing 400 × concentrated test item, glutamate, and glycine were prepared using Labcyte Echo acoustic dispensing system and stored at −20 °C until the day of the experiment.
(§3) Glycine 10 μM was always included in every test item addition.
(§4) Glycine was kept at a constant concentration of 10 μM during experiments.

[2] = molecular target: T1, NR1-2B NMDAR; assay: cell-based; assay type: cell-based; set-up: host or cells: CHO (CHO-hNR1-h2B), constitutive expression; conditions: for remaining activity at 0.049 µM / remaining activity at 0.195 µM / remaining activity at 0.781 µM / remaining activity at 3.1 µM / remaining activity at 12.5 µM / remaining activity at 50 µM: read-out: L-glutamate Max. (maximal asymptote) in the presence of test item, GluN1/GluN2B; for remaining activity at 0.049 µM: test item 0.049 μM; for remaining activity at 0.195 µM: test item 0.195 μM; for remaining activity at 0.781 µM: test item 0.781 μM; for remaining activity at 3.1 µM: test item 3.1 μM; for remaining activity at 12.5 µM: test item 12.5 μM; for remaining activity at 50 µM: test item 50 μM
[3] = molecular target: T2, NR1-2C NMDAR (Homo sapiens, UniProt Q05586+Q14957); assay: FLIPR Ca2+ assay, blocker concentration-response curve; assay type: cell-based; set-up: host or cells: CHO (CHO-hN1-h2C), tetracycline-induced expression; conditions: for Min. (%), minimal % Ca2+ influx in the presence of 100 μM blocker: 10 µM L-glutamate, no Mg2+; for Slope: logistic fit of blocker CRC
Excerpt: as §1, §2, §3, §4

[4] = molecular target: T3, NR1-2D NMDAR (Homo sapiens, UniProt O15399+Q05586); assay: as above; assay type: cell-based; set-up: host or cells: CHO (CHO-hN1-h2D), tetracycline-induced expression; conditions: for Min. (%), minimal % Ca2+ influx in the presence of 100 μM blocker: 10 µM L-glutamate, no Mg2+; for Slope: logistic fit of blocker CRC
Excerpt: as §1, §2, §3, §4

[5] = molecular target: T2, NR1-2C NMDAR; assay: cell-based; assay type: cell-based; set-up: host or cells: CHO (CHO-hN1-h2C), tetracycline-induced expression; conditions: for remaining activity at 0.049 µM / remaining activity at 0.195 µM / remaining activity at 0.781 µM / remaining activity at 3.1 µM / remaining activity at 12.5 µM / remaining activity at 50 µM: read-out: L-glutamate Max. (maximal asymptote) in the presence of test item, GluN1/GluN2C; for remaining activity at 0.049 µM: test item 0.049 μM; for remaining activity at 0.195 µM: test item 0.195 μM; for remaining activity at 0.781 µM: test item 0.781 μM; for remaining activity at 3.1 µM: test item 3.1 μM; for remaining activity at 12.5 µM: test item 12.5 μM; for remaining activity at 50 µM: test item 50 μM
[6] = molecular target: T3, NR1-2D NMDAR; assay: cell-based; assay type: cell-based; set-up: host or cells: CHO (CHO-hN1-h2D), tetracycline-induced expression; conditions: for remaining activity at 0.049 µM / remaining activity at 0.195 µM / remaining activity at 0.781 µM / remaining activity at 3.1 µM / remaining activity at 12.5 µM / remaining activity at 50 µM: read-out: L-glutamate Max. (maximal asymptote) in the presence of test item, GluN1/GluN2D; for remaining activity at 0.049 µM: test item 0.049 μM; for remaining activity at 0.195 µM: test item 0.195 μM; for remaining activity at 0.781 µM: test item 0.781 μM; for remaining activity at 3.1 µM: test item 3.1 μM; for remaining activity at 12.5 µM: test item 12.5 μM; for remaining activity at 50 µM: test item 50 μM
[7] = molecular target: T4, NR1-2A NMDAR (Homo sapiens, UniProt Q05586+Q12879); assay: FLIPR Ca2+ assay, blocker concentration-response curve; assay type: cell-based; set-up: host or cells: CHO (CHO-hNR1-h2A), tetracycline-induced expression; conditions: for Slope: logistic fit of blocker CRC
Excerpt: as §1, §2, §3, §4

[8] = molecular target: T4, NR1-2A NMDAR; assay: cell-based; assay type: cell-based; set-up: host or cells: CHO (CHO-hNR1-h2A), tetracycline-induced expression; conditions: for remaining activity at 0.049 µM / remaining activity at 0.195 µM / remaining activity at 0.781 µM / remaining activity at 3.1 µM / remaining activity at 12.5 µM / remaining activity at 50 µM: read-out: L-glutamate Max. (maximal asymptote) in the presence of test item, GluN1/GluN2A; for remaining activity at 0.049 µM: test item 0.049 μM; for remaining activity at 0.195 µM: test item 0.195 μM; for remaining activity at 0.781 µM: test item 0.781 μM; for remaining activity at 3.1 µM: test item 3.1 μM; for remaining activity at 12.5 µM: test item 12.5 μM; for remaining activity at 50 µM: test item 50 μM
[9] = molecular target: T3, NR1-2D NMDAR; assay: Whole-cell manual patch-clamp REL-1017 CRC in 1 mM MgCl2; conditions: 1 mM MgCl2, 1 μM L-glutamate, −60 mV
[10] = molecular target: T4, NR1-2A NMDAR; assay: Whole-cell automated patch-clamp (QPatch) in 1 mM Mg2+; assay type: cell-based; set-up: host or cells: CHO (CHO-hNR1-h2A), tetracycline-induced expression; conditions: 1 mM Mg2+
Experimental: Data were obtained in automated patch-clamp platform. […] Statistical results of one-way analysis of variance (ANOVA) followed by Tukey’s multiple comparisons test also reported p < 0.05 (*), p < 0.01 (**), p < 0.001 (***), and p < 0.0001 (****). Glu is glutamate.
For QPatch experiments, cells were grown in T-flasks first at 37 °C, 5% CO2 for 3 to 4 h, then at 30 °C, 5% CO2 for 18 to 24 h in DMEM/F12 medium with added 500 μM ketamine and 10 μg/mL tetracycline (except for NR1-2B-CHO cells) without additional antibiotics. Cells were manually detached from the culture dish and automatically dispensed in QPatch wells with extracellular solution in the presence of 1 mM Mg^2+ and 500 μM ketamine.
Holding potential was −80 mV, and voltage protocol included a depolarizing 2-s step pulse to +60 mV to check the quality of the seal and cell NMDAR expression level, followed by a 2-s ramp-up to holding potential.

T3 sequence (O15399 28-1336, other chains not shown): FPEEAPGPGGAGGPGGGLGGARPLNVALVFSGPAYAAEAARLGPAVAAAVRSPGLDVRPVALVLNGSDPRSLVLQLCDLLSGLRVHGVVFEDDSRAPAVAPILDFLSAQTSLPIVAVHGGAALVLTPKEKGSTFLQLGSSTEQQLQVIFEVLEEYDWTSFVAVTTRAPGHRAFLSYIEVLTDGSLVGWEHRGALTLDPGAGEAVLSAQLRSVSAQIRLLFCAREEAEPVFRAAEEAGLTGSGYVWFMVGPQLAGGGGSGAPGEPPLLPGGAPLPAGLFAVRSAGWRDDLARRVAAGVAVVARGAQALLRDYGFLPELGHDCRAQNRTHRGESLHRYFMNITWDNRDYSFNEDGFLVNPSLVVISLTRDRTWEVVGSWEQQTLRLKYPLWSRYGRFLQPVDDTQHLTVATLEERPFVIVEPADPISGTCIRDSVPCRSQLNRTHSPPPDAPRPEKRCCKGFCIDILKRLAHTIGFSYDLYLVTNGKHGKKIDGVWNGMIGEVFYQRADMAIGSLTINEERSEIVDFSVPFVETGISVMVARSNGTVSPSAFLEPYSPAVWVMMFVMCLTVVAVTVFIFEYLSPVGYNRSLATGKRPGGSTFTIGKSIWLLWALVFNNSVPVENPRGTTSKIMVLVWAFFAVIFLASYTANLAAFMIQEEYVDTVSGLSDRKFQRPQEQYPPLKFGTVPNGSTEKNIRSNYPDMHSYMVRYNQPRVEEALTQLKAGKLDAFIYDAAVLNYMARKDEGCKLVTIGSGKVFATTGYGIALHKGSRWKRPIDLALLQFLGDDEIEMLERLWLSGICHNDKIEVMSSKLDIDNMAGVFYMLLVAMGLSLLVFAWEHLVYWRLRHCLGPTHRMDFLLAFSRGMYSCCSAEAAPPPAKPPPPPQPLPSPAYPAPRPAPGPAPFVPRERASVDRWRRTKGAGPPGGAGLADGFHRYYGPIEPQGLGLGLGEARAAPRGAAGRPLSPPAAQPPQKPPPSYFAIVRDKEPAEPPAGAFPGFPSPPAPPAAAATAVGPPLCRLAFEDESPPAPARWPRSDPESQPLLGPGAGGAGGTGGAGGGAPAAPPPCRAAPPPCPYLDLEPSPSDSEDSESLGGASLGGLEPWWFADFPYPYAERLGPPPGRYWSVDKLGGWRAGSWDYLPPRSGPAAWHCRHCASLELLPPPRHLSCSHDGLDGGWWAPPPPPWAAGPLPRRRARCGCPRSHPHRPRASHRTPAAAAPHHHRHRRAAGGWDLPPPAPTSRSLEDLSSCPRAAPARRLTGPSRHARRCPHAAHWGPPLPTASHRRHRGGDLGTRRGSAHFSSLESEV
T1 sequence (Q13224 27-1484, other chains not shown): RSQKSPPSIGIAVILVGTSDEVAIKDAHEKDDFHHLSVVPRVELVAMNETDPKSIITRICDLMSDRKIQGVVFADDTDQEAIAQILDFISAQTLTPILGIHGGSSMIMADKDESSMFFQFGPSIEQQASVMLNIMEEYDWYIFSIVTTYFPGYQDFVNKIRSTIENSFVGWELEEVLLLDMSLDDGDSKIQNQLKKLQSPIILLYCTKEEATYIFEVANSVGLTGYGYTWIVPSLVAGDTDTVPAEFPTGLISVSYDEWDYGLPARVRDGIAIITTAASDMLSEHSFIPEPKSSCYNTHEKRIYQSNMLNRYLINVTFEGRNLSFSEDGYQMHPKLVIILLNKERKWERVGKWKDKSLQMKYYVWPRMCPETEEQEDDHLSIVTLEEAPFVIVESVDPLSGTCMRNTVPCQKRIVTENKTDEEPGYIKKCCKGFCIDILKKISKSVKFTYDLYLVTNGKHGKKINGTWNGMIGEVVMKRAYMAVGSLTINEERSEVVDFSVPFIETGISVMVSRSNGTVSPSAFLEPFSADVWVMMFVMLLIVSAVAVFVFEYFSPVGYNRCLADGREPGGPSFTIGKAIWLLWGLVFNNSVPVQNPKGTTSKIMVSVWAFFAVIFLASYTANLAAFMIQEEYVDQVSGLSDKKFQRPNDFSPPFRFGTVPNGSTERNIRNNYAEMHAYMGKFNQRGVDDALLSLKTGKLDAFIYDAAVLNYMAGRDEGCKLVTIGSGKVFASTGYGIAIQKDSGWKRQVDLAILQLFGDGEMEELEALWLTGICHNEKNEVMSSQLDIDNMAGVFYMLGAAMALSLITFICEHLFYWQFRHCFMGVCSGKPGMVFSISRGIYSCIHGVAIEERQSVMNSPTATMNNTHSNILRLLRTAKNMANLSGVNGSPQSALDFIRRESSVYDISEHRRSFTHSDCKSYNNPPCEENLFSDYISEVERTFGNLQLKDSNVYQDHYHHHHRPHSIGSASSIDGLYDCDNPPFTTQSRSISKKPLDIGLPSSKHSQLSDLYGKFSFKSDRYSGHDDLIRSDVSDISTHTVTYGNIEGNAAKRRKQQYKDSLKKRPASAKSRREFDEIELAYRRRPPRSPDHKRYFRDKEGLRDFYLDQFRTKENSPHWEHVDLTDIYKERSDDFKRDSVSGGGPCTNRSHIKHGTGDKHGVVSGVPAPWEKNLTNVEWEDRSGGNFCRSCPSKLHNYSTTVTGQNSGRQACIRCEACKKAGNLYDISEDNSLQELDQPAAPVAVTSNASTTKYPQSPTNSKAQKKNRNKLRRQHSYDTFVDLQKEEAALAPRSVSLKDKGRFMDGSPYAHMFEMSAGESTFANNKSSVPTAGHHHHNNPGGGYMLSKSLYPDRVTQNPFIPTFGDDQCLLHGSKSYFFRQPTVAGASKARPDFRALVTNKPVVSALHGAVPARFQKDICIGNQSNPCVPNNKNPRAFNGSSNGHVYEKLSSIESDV
T2 sequence (Q14957 20-1233, other chains not shown): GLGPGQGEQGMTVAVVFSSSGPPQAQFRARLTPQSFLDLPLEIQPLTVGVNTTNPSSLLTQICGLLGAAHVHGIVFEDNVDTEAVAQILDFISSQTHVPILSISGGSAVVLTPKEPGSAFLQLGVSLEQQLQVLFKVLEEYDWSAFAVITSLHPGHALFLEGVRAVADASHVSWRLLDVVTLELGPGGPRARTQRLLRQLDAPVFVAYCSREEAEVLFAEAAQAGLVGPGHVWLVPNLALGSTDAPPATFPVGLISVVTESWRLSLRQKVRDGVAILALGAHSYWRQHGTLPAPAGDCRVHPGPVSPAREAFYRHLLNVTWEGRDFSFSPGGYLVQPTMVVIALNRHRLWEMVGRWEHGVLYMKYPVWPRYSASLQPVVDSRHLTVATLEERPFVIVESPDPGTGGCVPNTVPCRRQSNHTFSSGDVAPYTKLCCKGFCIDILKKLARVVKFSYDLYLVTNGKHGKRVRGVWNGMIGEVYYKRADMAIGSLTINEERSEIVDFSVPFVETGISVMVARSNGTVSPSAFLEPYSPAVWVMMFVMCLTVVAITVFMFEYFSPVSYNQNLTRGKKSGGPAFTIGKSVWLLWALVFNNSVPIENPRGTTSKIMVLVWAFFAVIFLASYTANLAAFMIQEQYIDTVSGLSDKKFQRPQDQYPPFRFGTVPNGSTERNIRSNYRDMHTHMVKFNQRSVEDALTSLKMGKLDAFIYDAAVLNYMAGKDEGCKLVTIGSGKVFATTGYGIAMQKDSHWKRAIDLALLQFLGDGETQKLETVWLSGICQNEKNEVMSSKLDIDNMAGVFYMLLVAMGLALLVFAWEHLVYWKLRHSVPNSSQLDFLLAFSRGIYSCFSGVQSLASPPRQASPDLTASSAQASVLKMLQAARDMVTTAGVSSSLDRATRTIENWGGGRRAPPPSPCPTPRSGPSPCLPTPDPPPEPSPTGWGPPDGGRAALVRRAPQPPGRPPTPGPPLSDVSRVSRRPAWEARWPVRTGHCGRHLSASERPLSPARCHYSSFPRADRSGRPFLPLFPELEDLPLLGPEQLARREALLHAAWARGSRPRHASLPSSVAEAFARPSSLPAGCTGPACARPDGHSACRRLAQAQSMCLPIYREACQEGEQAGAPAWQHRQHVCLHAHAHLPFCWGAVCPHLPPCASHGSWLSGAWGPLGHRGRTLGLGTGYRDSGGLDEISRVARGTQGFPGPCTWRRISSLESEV

SMILES	Min. (%), minimal % Ca2+ influx in the presence of 100 μM blocker [1] [%]	Slope [1]	remaining activity at 0.049 µM [2] [%]	remaining activity at 0.195 µM [2] [%]	remaining activity at 0.781 µM [2] [%]	remaining activity at 3.1 µM [2] [%]	remaining activity at 12.5 µM [2] [%]	remaining activity at 50 µM [2] [%]	Min. (%), minimal % Ca2+ influx in the presence of 100 μM blocker [3] [%]	Slope [3]	Min. (%), minimal % Ca2+ influx in the presence of 100 μM blocker [4] [%]	Slope [4]	remaining activity at 0.049 µM [5] [%]	remaining activity at 0.195 µM [5] [%]	remaining activity at 0.781 µM [5] [%]	remaining activity at 3.1 µM [5] [%]	remaining activity at 12.5 µM [5] [%]	remaining activity at 50 µM [5] [%]	remaining activity at 0.049 µM [6] [%]	remaining activity at 0.195 µM [6] [%]	further results
COc1ccc2c(c1)[C@]13CCCC[C@@H]1[C@H](C2)N(C)CC3 [Dextromethorphan, dextromethorphan]	14	−0.89	95	92	88	74	57	32	14	−1.0	43	−1.2	95	97	86	67	26	13	93	91	Kb ([2]; NR1-2B, operational equation for allosteric modulators, no Mg2+): 1.9 µM; Affinity Ratio (%) ([2]; NR1-2B, reciprocal of KB, highest affinity subtype = 100%): 63%; Kb ([5]; NR1-2C, operational equation for allosteric modulators, no Mg2+): 1.2 µM; Affinity Ratio (%) ([5]; NR1-2C, reciprocal of KB, highest affinity subtype = 100%): 100%; Kb ([6]; NR1-2D, operational equation for allosteric modulators, no Mg2+): 6.7 µM; Affinity Ratio (%) ([6]; NR1-2D, reciprocal of KB, highest affinity subtype = 100%): 18%; remaining activity at 0.781 µM [6]: 99%; remaining activity at 3.1 µM [6]: 87%; remaining activity at 12.5 µM [6]: 59%; remaining activity at 50 µM [6]: 31%; Min. (%), minimal % Ca2+ influx in the presence of 100 μM blocker ([7]; 100 μM blocker, 10 µM L-glutamate, no Mg2+): 35%; Slope [7]: −0.80; Kb ([8]; NR1-2A, operational equation for allosteric modulators, no Mg2+): 9.6 µM; Affinity Ratio (%) ([8]; NR1-2A, reciprocal of KB, highest affinity subtype = 100%): 13%; remaining activity at 0.049 µM [8]: 98%; remaining activity at 0.195 µM [8]: 92%; remaining activity at 0.781 µM [8]: 99%; remaining activity at 3.1 µM [8]: 88%; remaining activity at 12.5 µM [8]: 79%; remaining activity at 50 µM [8]: 44%
CCC(=O)C(C[C@H](C)N(C)C)(c1ccccc1)c1ccccc1 [REL-1017, dextromethadone HCl]	14	−1.1	96	96	93	89	72	35	15	−0.84	47	−0.68	99	100	95	94	75	30	101	97	Hill Slope [9]: 1.42; remaining activity at 0.781 µM [6]: 101%; remaining activity at 3.1 µM [6]: 97%; remaining activity at 12.5 µM [6]: 82%; remaining activity at 50 µM [6]: 41%; Slope [7]: −1.0; remaining activity at 0.049 µM [8]: 103%; remaining activity at 0.195 µM [8]: 98%; remaining activity at 0.781 µM [8]: 103%; remaining activity at 3.1 µM [8]: 98%; remaining activity at 12.5 µM [8]: 84%; remaining activity at 50 µM [8]: 35%; effect on L-glutamate-elicited current ([10]; 10 μM REL-1017, 1 μM L-glutamate): inactive; effect on L-glutamate-elicited current ([10]; 10 μM REL-1017, 10 μM L-glutamate, −30 mV to −80 mV): significantly reduced
